One series addresses CYP3A4(BFC) (Homo sapiens, UniProt P08684). Kind of series: CYP3A4(BFC) inhibition. The class given is in vitro ADME. The conditions noted are these: CYP3A4, substrate BFC; read-out: Cyp IC50 3A4(BFC). An outline of the steps: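 This fluorescence assay tracks how test compounds reduce CYP3A4 turnover of BFC, with enzyme and substrate from BD Biosciences. A 10-point 1:1 dilution series in cofactor mix (1.3% NADPH Regeneration Solution A, 1.04% Solution B, 5% acetonitrile, 0.05% DMSO) was dispensed at 10 μL into 384 well plates, preincubated 10 minutes at 37° C, then incubated 30 min and read on a Tecan Safire 2.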

Series [1] can be described thus: Relative solubility by turbidity in aqueous buffers (pH 1.5, 4.5, 6.8, 7.4). The conditions noted are these: for turbidity threshold (L, M, H) 1.4: pH 1.5 (SGF); for turbidity threshold (L, M, H) 4.5: pH 4.5 (SIF); for turbidity threshold (L, M, H) 6.8: pH 6.8 (SIF); for turbidity threshold (L, M, H) 7.4: pH 7.4 (HEPES). The class given is physicochemical. The method in brief: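 Reported value: concentration at which optical density at 490, 535 and 650 nm passes 0.01, taken as the mean of the three wavelengths. Buffers were 0.5M NaCl pH 1.5, 0.05M NaH2PO4 pH 4.5 or 6.8, and 10 mM HEPES/150 mM NaCl pH 7.4, each receiving serial 1:1 DMSO dilutions of a 25 mM stock.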

A value given as a limit tells only on which side of the number the result lay.

Sequence of CYP3A4(BFC) (P08684 whole entry): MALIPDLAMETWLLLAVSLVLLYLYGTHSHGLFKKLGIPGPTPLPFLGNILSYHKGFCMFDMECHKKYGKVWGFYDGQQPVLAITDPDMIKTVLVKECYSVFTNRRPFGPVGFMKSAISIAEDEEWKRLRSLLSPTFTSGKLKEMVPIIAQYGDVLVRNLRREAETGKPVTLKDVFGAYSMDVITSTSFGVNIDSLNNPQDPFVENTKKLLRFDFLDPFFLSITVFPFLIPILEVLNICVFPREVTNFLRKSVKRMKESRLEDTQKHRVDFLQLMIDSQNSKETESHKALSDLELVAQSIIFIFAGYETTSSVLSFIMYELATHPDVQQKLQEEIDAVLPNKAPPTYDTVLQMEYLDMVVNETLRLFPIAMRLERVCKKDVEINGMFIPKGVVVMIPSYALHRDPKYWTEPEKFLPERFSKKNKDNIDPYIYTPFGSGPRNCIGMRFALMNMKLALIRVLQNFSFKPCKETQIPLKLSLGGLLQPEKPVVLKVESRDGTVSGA

Turning to `COc1cncc(Nc2ccc(C(=O)c3c[nH]c4ncnc(NC5CCCCC5)c34)c(F)n2)c1` [Compound P-4104, [4-(cyclohexylamino)-7H-pyrrolo[2,3-d]pyrimidin-5-yl]-[2-fluoro-6-[(5-methoxy-3-pyridyl)amino]-3-pyridyl]methanone], on CYP3A4(BFC), the IC50 is above 10 µM. In series [1], the “turbidity threshold (L, M, H) 1.4” value was “M (moderate solubility if the threshold concentration is 31.3 μM to 250 μM)”; the “turbidity threshold (L, M, H) 4.5” value was “L (low solubility if the threshold concentration is <31.3 μM)”; the “turbidity threshold (L, M, H) 6.8” value was “L (low solubility if the threshold concentration is <31.3 μM)”; the “turbidity threshold (L, M, H) 7.4” value is listed as “L (low solubility if the threshold concentration is <31.3 μM)”.

On to `O=C(c1ccc(Nc2ccc(C(F)(F)F)nc2)nc1F)c1c[nH]c2ncnc(NC3CC3)c12` [Compound P-4091, [4-(cyclopropylamino)-7H-pyrrolo[2,3-d]pyrimidin-5-yl]-[2-fluoro-6-[[6-(trifluoromethyl)-3-pyridyl]amino]-3-pyridyl]methanone], for which, at CYP3A4(BFC), the IC50 was above 10 µM. For the same compound, in series [1], the “turbidity threshold (L, M, H) 1.4” value is on record as “H (high solubility if the threshold concentration is >250 μm)”; the “turbidity threshold (L, M, H) 4.5” value is recorded as “M (moderate solubility if the threshold concentration is 31.3 μM to 250 μM)”; the “turbidity threshold (L, M, H) 6.8” value is “M (moderate solubility if the threshold concentration is 31.3 μM to 250 μM)”; the “turbidity threshold (L, M, H) 7.4” value is listed as “M (moderate solubility if the threshold concentration is 31.3 μM to 250 μM)”.

As to `Cc1ccc(Nc2ccc(C(=O)c3c[nH]c4ncnc(NCC(F)(F)F)c34)c(F)n2)cn1` [Compound P-4112, [2-fluoro-6-[(6-methyl-3-pyridyl)amino]-3-pyridyl]-[4-(2,2,2-trifluoroethylamino)-7H-pyrrolo[2,3-d]pyrimidin-5-yl]methanone], the IC50 on CYP3A4(BFC) was above 10 µM. Further, in series [1], the “turbidity threshold (L, M, H) 1.4” value was “M (moderate solubility if the threshold concentration is 31.3 μM to 250 μM)”; the “turbidity threshold (L, M, H) 4.5” value is recorded as “M (moderate solubility if the threshold concentration is 31.3 μM to 250 μM)”; the “turbidity threshold (L, M, H) 6.8” value is recorded as “M (moderate solubility if the threshold concentration is 31.3 μM to 250 μM)”; the “turbidity threshold (L, M, H) 7.4” value is reported as “H (high solubility if the threshold concentration is >250 μm)”.

In the case of `O=C(c1ccc(Nc2ccc(C3CC3)nc2)nc1F)c1c[nH]c2ncnc(NC3CC3)c12` [Compound P-4093, [4-(cyclopropylamino)-7H-pyrrolo[2,3-d]pyrimidin-5-yl]-[6-[(6-cyclopropyl-3-pyridyl)amino]-2-fluoro-3-pyridyl]methanone], the IC50 at CYP3A4(BFC) was above 10 µM. Also, in series [1], the “turbidity threshold (L, M, H) 1.4” value is given as “H (high solubility if the threshold concentration is >250 μm)”; the “turbidity threshold (L, M, H) 4.5” value is on record as “L (low solubility if the threshold concentration is <31.3 μM)”; the “turbidity threshold (L, M, H) 6.8” value is given as “L (low solubility if the threshold concentration is <31.3 μM)”; the “turbidity threshold (L, M, H) 7.4” value is “L (low solubility if the threshold concentration is <31.3 μM)”.

Consider `COc1ccc(Nc2ccc(C(=O)c3c[nH]c4ncnc(NC5CCCC5)c34)c(F)n2)cn1` [Compound P-4075, [4-(cyclopentylamino)-7H-pyrrolo[2,3-d]pyrimidin-5-yl]-[2-fluoro-6-[(6-methoxy-3-pyridyl)amino]-3-pyridyl]methanone], for which the IC50 on CYP3A4(BFC) was above 10 µM. In series [1], the “turbidity threshold (L, M, H) 1.4” value is reported as “M (moderate solubility if the threshold concentration is 31.3 μM to 250 μM)”; the “turbidity threshold (L, M, H) 4.5” value is listed as “L (low solubility if the threshold concentration is <31.3 μM)”; the “turbidity threshold (L, M, H) 6.8” value is on record as “L (low solubility if the threshold concentration is <31.3 μM)”; the “turbidity threshold (L, M, H) 7.4” value is on record as “L (low solubility if the threshold concentration is <31.3 μM)”.

In the case of `COc1ccc(Nc2ccc(C(=O)c3c[nH]c4ncnc(NC5CCCCC5)c34)c(F)n2)cn1` [Compound P-4082, [4-(cyclohexylamino)-7H-pyrrolo[2,3-d]pyrimidin-5-yl]-[2-fluoro-6-[(6-methoxy-3-pyridyl)amino]-3-pyridyl]methanone], the IC50 at CYP3A4(BFC) was above 10 µM. For the same compound, in series [1], the “turbidity threshold (L, M, H) 1.4” value is recorded as “M (moderate solubility if the threshold concentration is 31.3 μM to 250 μM)”; the “turbidity threshold (L, M, H) 4.5” value was “L (low solubility if the threshold concentration is <31.3 μM)”; the “turbidity threshold (L, M, H) 6.8” value is “L (low solubility if the threshold concentration is <31.3 μM)”; the “turbidity threshold (L, M, H) 7.4” value is reported as “L (low solubility if the threshold concentration is <31.3 μM)”.

Turning to `CCc1ccc(Nc2ccc(C(=O)c3c[nH]c4ncnc(NCC(C)C)c34)c(F)n2)cn1` [Compound P-4121, [6-[(6-ethyl-3-pyridyl)amino]-2-fluoro-3-pyridyl]-[4-(isobutylamino)-7H-pyrrolo[2,3-d]pyrimidin-5-yl]methanone], on CYP3A4(BFC), the IC50 is above 10 µM. In series [1], the “turbidity threshold (L, M, H) 1.4” value was “H (high solubility if the threshold concentration is >250 μm)”; the “turbidity threshold (L, M, H) 4.5” value was “H (high solubility if the threshold concentration is >250 μm)”; the “turbidity threshold (L, M, H) 6.8” value was “H (high solubility if the threshold concentration is >250 μm)”; the “turbidity threshold (L, M, H) 7.4” value is listed as “H (high solubility if the threshold concentration is >250 μm)”.

On to `CCCNc1ncnc2[nH]cc(C(=O)c3ccc(Nc4ccc(CC)nc4)nc3F)c12` [Compound P-4122, [6-[(6-ethyl-3-pyridyl)amino]-2-fluoro-3-pyridyl]-[4-(propylamino)-7H-pyrrolo[2,3-d]pyrimidin-5-yl]methanone], for which, on CYP3A4(BFC), the IC50 was above 10 µM. For the same compound, in series [1], the “turbidity threshold (L, M, H) 1.4” value is given as “H (high solubility if the threshold concentration is >250 μm)”; the “turbidity threshold (L, M, H) 4.5” value is “L (low solubility if the threshold concentration is <31.3 μM)”; the “turbidity threshold (L, M, H) 6.8” value is recorded as “M (moderate solubility if the threshold concentration is 31.3 μM to 250 μM)”; the “turbidity threshold (L, M, H) 7.4” value is reported as “L (low solubility if the threshold concentration is <31.3 μM)”.

For the compound `CCc1ccc(Nc2ccc(C(=O)c3c[nH]c4ncnc(NC)c34)c(F)n2)cn1` [Compound P-4124, [6-[(6-ethyl-3-pyridyl)amino]-2-fluoro-3-pyridyl]-[4-(methylamino)-7H-pyrrolo[2,3-d]pyrimidin-5-yl]methanone], the IC50 at CYP3A4(BFC) is above 10 µM. In series [1], the “turbidity threshold (L, M, H) 1.4” value was “M (moderate solubility if the threshold concentration is 31.3 μM to 250 μM)”; the “turbidity threshold (L, M, H) 4.5” value is on record as “L (low solubility if the threshold concentration is <31.3 μM)”; the “turbidity threshold (L, M, H) 6.8” value is recorded as “L (low solubility if the threshold concentration is <31.3 μM)”; the “turbidity threshold (L, M, H) 7.4” value is “M (moderate solubility if the threshold concentration is 31.3 μM to 250 μM)”.

Regarding `CNc1ncnc2[nH]cc(C(=O)c3ccc(Nc4cncc(OC)c4)nc3F)c12` [Compound P-4108, [2-fluoro-6-[(5-methoxy-3-pyridyl)amino]-3-pyridyl]-[4-(methylamino)-7H-pyrrolo[2,3-d]pyrimidin-5-yl]methanone], the concentration for half-maximal inhibition (IC50) on CYP3A4(BFC) is above 10 µM. Also, in series [1], the “turbidity threshold (L, M, H) 1.4” value was “H (high solubility if the threshold concentration is >250 μm)”; the “turbidity threshold (L, M, H) 4.5” value is “M (moderate solubility if the threshold concentration is 31.3 μM to 250 μM)”; the “turbidity threshold (L, M, H) 6.8” value is listed as “M (moderate solubility if the threshold concentration is 31.3 μM to 250 μM)”; the “turbidity threshold (L, M, H) 7.4” value is given as “M (moderate solubility if the threshold concentration is 31.3 μM to 250 μM)”.

In the case of `CCCCNc1ncnc2[nH]cc(C(=O)c3ccc(Nc4ccc(CC)nc4)nc3F)c12` [Compound P-4100, [4-(butylamino)-7H-pyrrolo[2,3-d]pyrimidin-5-yl]-[6-[(6-ethyl-3-pyridyl)amino]-2-fluoro-3-pyridyl]methanone], the IC50 on CYP3A4(BFC) is above 10 µM. In series [1], the “turbidity threshold (L, M, H) 1.4” value was “H (high solubility if the threshold concentration is >250 μm)”; the “turbidity threshold (L, M, H) 4.5” value is given as “M (moderate solubility if the threshold concentration is 31.3 μM to 250 μM)”; the “turbidity threshold (L, M, H) 6.8” value was “M (moderate solubility if the threshold concentration is 31.3 μM to 250 μM)”; the “turbidity threshold (L, M, H) 7.4” value is “M (moderate solubility if the threshold concentration is 31.3 μM to 250 μM)”.

`CC(C)Nc1ncnc2[nH]cc(C(=O)c3ccc(NC4CCCCC4)nc3F)c12` [Compound P-4101, [6-(cyclohexylamino)-2-fluoro-3-pyridyl]-[4-(isopropylamino)-7H-pyrrolo[2,3-d]pyrimidin-5-yl]methanone]: the IC50 on CYP3A4(BFC) is above 10 µM. In series [1], the “turbidity threshold (L, M, H) 1.4” value is on record as “M (moderate solubility if the threshold concentration is 31.3 μM to 250 μM)”; the “turbidity threshold (L, M, H) 4.5” value is “L (low solubility if the threshold concentration is <31.3 μM)”; the “turbidity threshold (L, M, H) 6.8” value is “L (low solubility if the threshold concentration is <31.3 μM)”; the “turbidity threshold (L, M, H) 7.4” value is listed as “L (low solubility if the threshold concentration is <31.3 μM)”.
